Assay results published in patent US20250144049A1, “METHODS, COMPOSITIONS, AND USES RELATED TO THE TREATMENT AND PREVENTION OF LEIGH SYNDROME” (Stealth BioTherapeutics Inc., priority 2023, published 2025).

Tests used:
[1] = Compound 4 pharmacokinetics and tissue exposure after five daily subcutaneous doses; format: in vivo, C57BL/6 mice
Method: Study design details: • Animals were allowed to acclimate to the test facility for at least two days prior to the beginning of the study. • Study animals were male C57BL/6 mice weighing approximately 18-25 grams each. • Fasting was not required for the study. • Body weights were recorded prior to dose administration. The volume of each dose delivered (mL/kg) was based on each individual animal's body weight. • This was a multiple dose serial PK dosed subcutaneously once daily over 5 days. Compound 4 was administered to two groups: Group 1 at 60 mg/kg and Group 2 at 180 mg/kg (6 and 18 mg/mL, 15% Kolliphor ELP in PBS, 10 mL/kg; N=3/group). Serial PK timepoints were collected following the 5th and final dose.
Sample collection details: • Serial blood samples were collected via tail vein snip. • Blood samples were collected into tubes with anticoagulant. Tubes were stored on wet ice until processed to plasma by centrifugation (3500 rpm at 5° C. for 10 minutes) within 20 minutes of collection. Sample aliquots of 20 μL were transferred into individual uniquely labeled matrix tubes and stored at nominal −80° C. until transferred to analytical chemistry for analysis. • Immediately following each terminal blood collection for all groups, animals were sacrificed and perfused with cold PBS. Heart and brain tissues were collected. • Perfusion methodology: The chest was opened lengthwise using scissors to expose the thoracic organs. A scalpel was used to cut a small hole into the left ventricle just large enough to insert a cannula tip. The cannula was attached to an appropriately sized tubing and syringe prefilled with cold PBS and primed to remove any air. The tip of the cannula was inserted into the left ventricle and directed into the ascending aorta. Hemostats were used to help keep the cannula in place during perfusion. A second hole was made in the right atrium to allow for the escape of fluid during the return circulation. The syringe attached to the cannula was manually pushed or placed into a pump programmed to infuse at 10 mL/min. Animals were perfused for a minimum of 3 minutes or more if needed (until the exiting fluid was clear).
• N=3/group; • Collections relative to the final dose: • Plasma: 60 mg/kg at 2 and 24 hr, 180 mg/kg at predose, 2, 8, and 24 hr • Heart and Brain: 24 hr (terminal, PBS-perfused); • RGA 2 bioanalysis.
• N=3/timepoint; • Collections relative to the final dose: • Plasma: 0.5, 2, 8, and 24 hr (terminal) • Heart and Brain: 0.5, 2, 8, and 24 hr (terminal, PBS-perfused) • RGA 2 bioanalysis.

[2] = test system: Ndufs4-KO mouse model of Leigh syndrome; experiment: Biomarker evaluation study in Ndufs4-KO mouse model of Leigh syndrome; format: in vivo; conditions: Ndufs4-KO mice
Method: Study design. A biomarker evaluation study was performed to test Compound 4 in a mouse model of Leigh syndrome (B6.129S4-Ndufs4^tm1.1Rpa/J; JAX Stock #027058). All studies were performed under the approved IACUC protocol at Jackson Laboratories Bar Harbor ME. Three groups of mice were included in this study: (1) wild-type (WT) C57BL/6J mice (n=8), each receiving 20 mg/kg Compound 4 subcutaneously once per day starting at postnatal age 21 days (P21); (2) Ndufs4-KO mice (homozygous knock outs (“HOM”)) (“HOM Veh”) (n=8), each receiving vehicle (5% Kolliphor-ELP in 1×PBS at a dosage of 10 mL/kg/day) subcutaneously once per day starting at P21; and (3) Ndufs4-KO mice (“HOM Comp. 4, 20 mg/kg”) (n=8), each receiving 20 mg/kg Compound 4 subcutaneously per day starting at P21. From the age of P30, body weight and body temperature was measured daily. At the age of P30 and P40 animals were made to perform a forced exercise on an inclining treadmill for up to 15 minutes or reaching exhaustion whichever happened first. Retro-orbital blood collection (for plasma) was performed after each exercise session for L-Lactic acid level analysis using an enzymatic reaction (biochemical) method with colorimetric read out. The mice were sacrificed and necropsied at P45 or upon reaching a humane endpoint as determined by body conditioning and neurological scoring method developed by Jackson Laboratory for this animal model. Terminal plasma was collected via cardiocentesis post-euthanasia for mitokine analysis (GDF-15 and FGF-21) using an ELISA kit (Abcam: ab216947, ab212160). The manufacturer protocol was followed to generate a standard curve. Plasma was diluted 1:5 in phosphate buffered saline for the ELISA.
Statistical analysis. Kaplan Meier plot followed by chi squared test & two-way ANOVA followed by Dunnett's multiple comparisons test were performed using GraphPad Prism version 10.0.0, GraphPad Software (Boston, Massachusetts) (www.graphpad.com).

[3] = test system: Ndufs4-KO mouse model of Leigh syndrome; experiment: Survival study in Ndufs4-KO mouse model of Leigh syndrome; format: in vivo; conditions: Ndufs4-KO mice
Method: Study design. A survival study was performed to test Compound 4 in a whole body (WB)-Ndufs4-KO mouse model of Leigh syndrome (B6.129S4-Ndufs4^tm1.1Rpa/J; JAX Stock #027058; “Ndufs4-KO mice”). Defects in the non-enzymatic, nuclear-encoded protein, NDUFS4 (NADH dehydrogenase (ubiquinone) Fe—S protein 4), cause a Leigh-like phenotype in humans that results in death within 3-16 months after birth. Exon 2 of the mouse Ndufs4 gene has been excised in this knockout allele. Three groups of mice were included in this study: (1) wild-type (WT) C57BL/6J mice (n=12), each receiving 20 mg/kg Compound 4 subcutaneously once per day starting at postnatal age 21 days (P21); (2) Ndufs4-KO mice (homozygous knock outs (“HOM”)) (“HOM Vehicle”) (n=9), each receiving vehicle (5% Kolliphor-ELP in 1×PBS at a dosage of 10 mL/kg/day) subcutaneously once per day starting at P21; and (3) Ndufs4-KO mice (“HOM Comp. 4, 20 mg/kg”) (n=13), each receiving 20 mg/kg Compound 4 subcutaneously per day starting at P21. All studies were performed under the approved IACUC protocol at Jackson Laboratories (Bar Harbor, ME). The mice were sacrificed and necropsied upon reaching a humane endpoint as determined by body conditioning and neurological scoring method developed by Jackson Laboratory for this animal model. Terminal plasma was collected via cardiocentesis post euthanasia for future analysis.
Statistical analysis. Kaplan Meier plot followed by chi squared test were performed using GraphPad Prism version 10.0.0, GraphPad Software (Boston, Massachusetts) (www.graphpad.com).

[4] = male, C57BL/6, mouse, in vivo, sc, 60 mg/kg
[5] = 20 mg/kg SC daily, terminal plasma, FIG. 24C

Question: With `CC1=C(C)C(=O)C(CC[C@](C)(O)CCCCCCCCC(F)(F)F)=C(C)C1=O` [Compound 4] as the compound, how does the time to steady-state ([1]; male, C57BL/6, mouse, in vivo, sc) read?
Answer: ≤ 5 days

Question: And the AUClast/Dose [1, 4]?
Answer: 257 kg·ng·h/mL/mg

Question: What about the Cmax/Dose [1, 4] of the same compound?
Answer: 24.0 kg·ng/mL/mg

Question: What about the AUClast/Dose ([1]; male, C57BL/6, mouse, in vivo, sc, 180 mg/kg) of the same compound?
Answer: 273 kg·ng·h/mL/mg

Question: What about the C24/Dose ([1]; male, C57BL/6, mouse, in vivo, sc, 180 mg/kg, 24 h) of the same compound?
Answer: 1.48 kg·ng/mL/mg

Question: What about the “concentrations in heart versus brain” value ([1]; mouse tissue after 5 days) of the same compound?
Answer: Similar

Question: And the “C24 (trough) tissue exposure versus dose” value ([1]; mouse, in vivo)?
Answer: approximately proportional to dose

Question: What about the survival proportion ([2]; 20 mg/kg SC daily from P21 until P46, vs vehicle, FIG. 24A) of the same compound?
Answer: improved survival proportion

Question: And the “exercise-induced lactic acidosis (plasma lactate)” value ([2]; 20 mg/kg SC daily, forced exercise at P30 and P40, FIG. 24B)?
Answer: mitigated exercise-induced lactic acidosis

Question: What about the “plasma FGF-21” value [2, 5] of the same compound?
Answer: normalizing trends

Question: And the “plasma GDF-15” value [2, 5]?
Answer: significantly normalized

Question: And the “effect on survival, Gehan Breslow-Wilcoxon test P” value ([3]; 20 mg/kg SC daily from P21)?
Answer: < 0.0001

Question: And the “effect on survival, logrank test P” value ([3]; 20 mg/kg SC daily from P21)?
Answer: < 0.0001

Question: And the survival ([3]; 20 mg/kg SC once per day from P21, vs vehicle, FIG. 23)?
Answer: significantly improved survival
